The results in this text go back to US9126973B2, “Multiheteroaryl compounds as inhibitors of H-PGDS and their use for treating prostaglandin D2 mediated diseases” (Cayman Chemical Company, Incorporated, priority 2008, dated 2015).

In general, IC50 refers to the concentration that inhibits the measured activity by half. A higher IC50 goes with weaker potency in that assay. Usually melting point stands for the temperature, or range, at which the solid turns liquid.

In one data set the target is H-PGDS (Homo sapiens (Human), UniProt O60760). Nature of the data set: H-PGDS Fluorescence Polarization Binding Assay (FPBA). The note with it: H-PGDS-MBP fusion enzyme, fluorescent probe, reduced glutathione 5 mM, 60-90 minutes at room temperature, 96-well format. The method, then: H-PGDS Fluorescence Polarization Binding Assay This assay essentially is available from Cayman Chemical Company as Catalog item #600007. The test data reported for the aforementioned Examples (H-PGDS FPBA IC50) were generated using a 96-well, instead of the 384-well, format. […] Assays were performed in 96-well microtiter plates in 100 μL of total sample volume. Excitation and emission wavelengths appropriate for the employed detection analyte were used. […] Twelve clean microfuge tubes were labeled A1 through A12. […] Dimethyl sulfoxide (50 μL) was added to each of tubes A1 through A11. The HQL-79 control solution was serially diluted by removing 50 μL from tube A12 and placing it in tube A11 with subsequent thorough mixing of the contents of tube A11. Next, 50 μL was removed from tube A11 and was placed into tube A10 with subsequent thorough mixing of the contents of tube A10. This process was repeated for tubes A9 through A2. […] A test compound may be dissolved in DMSO, ethanol, or methanol at several concentrations when the titration endpoint is unknown. […] Assay cocktail (95 μL) was added to each plate well. DMSO (5 μL) from microfuge tube A1 was added to each plate well A1 and B1. Positive control solution (5 μL) from microfuge tube A2 was added to each plate well A2 and B2. Positive control solution (5 μL) from microfuge tube A3 was added to each plate well A3 and B3. This procedure was continued until all the positive control standard dilutions were aliquoted. Test compound solutions (5 μL) were added to the wells. […] The IC50 for a particular test compound was obtained by performing a full concentration titration versus a full concentration titration of positive control. Comparison of a single concentration of a test compound to the maximum binding well provided an assessment of the relative affinity of the test compound for H-PGDS-MBP. The plate was covered and incubated for 60-90 minutes at room temperature. The FP signal is stable for at least two hours. […] The measurements were taken in the fluorescent polarization mode with the z-height set to the middle of the well and the G-factor set to 1.13 on a Tecan Safire 2 reader.
Sequence of H-PGDS (O60760 whole entry, the tested form may be a part): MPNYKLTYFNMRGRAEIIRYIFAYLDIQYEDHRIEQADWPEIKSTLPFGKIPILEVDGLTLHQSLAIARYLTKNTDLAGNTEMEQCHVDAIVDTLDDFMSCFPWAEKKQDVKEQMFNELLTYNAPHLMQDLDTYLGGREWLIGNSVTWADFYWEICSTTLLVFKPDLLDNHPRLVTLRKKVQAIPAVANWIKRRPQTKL
(Fluorescence polarisation rises when a labelled molecule tumbles more slowly, as on binding a larger partner.)

SMILES strings stand for the structures.

As for `c1ccc(-c2cc(-c3cnc(-c4ccccc4)nc3)[nH]n2)cc1` [Example 45, 2-phenyl-5-(3-phenyl-1H-pyrazol-5-yl)pyrimidine], the 50% inhibitory concentration (IC50) on H-PGDS was 1.5 µM.

`CC(C)(C)OC(=O)N1CCC(c2ncc(-c3cnc(-c4ccccc4)nc3)[nH]2)C1` (racemic) [Example 28, (±)-tert-butyl 3-(5-(2-phenylpyrimidin-5-yl)-1H-imidazol-2-yl)pyrrolidine-1-carboxylate] had a melting point of 219 °C.

Molecule `c1ccc(Cn2cncc2-c2cnc(-c3ccccc3)nc2)cc1` [Example 33, 5-(1-benzyl-1H-imidazol-5-yl)-2-phenylpyrimidine] gave a melting point of 140 °C. At H-PGDS, this molecule returned a half-inhibitory concentration (IC50) of 2 µM.

Turning to `c1ccc(-c2ncc(-c3ncco3)cn2)cc1` [Example 42, 2-(2-phenylpyrimidin-5-yl)oxazole], the melting point lay in the range of 175 to 177 °C. In addition, on H-PGDS, the IC50 turned out to be 7.8 µM.

Turning to `O=C(O)C(F)(F)F.c1ccc(-c2ncc(-c3csc(C4CCNCC4)n3)cn2)cc1` [Example 61, 4-(4-(2-phenylpyrimidin-5-yl)thiazol-2-yl)piperidinium 2,2,2-trifluoroacetate], the melting point is 290 °C. At H-PGDS, the IC50 was found to be 5 µM.

Regarding `c1cncc(-c2ncc(-c3cnc(-c4cccnc4)[nH]3)cn2)c1` [Example 12, 2-(pyridin-3-yl)-5-(2-(pyridin-3-yl)-1H-imidazol-5-yl)pyrimidine], the melting point is 299 °C. The molecule also came in with a half-maximal inhibitory concentration (IC50) on H-PGDS of 1.3 µM.

For `c1ccc(Cn2c(-c3ccccc3)cnc2-c2cnc(-c3ccccc3)nc2)cc1` [Example 44 (Step B), 5-(1-benzyl-5-phenyl-1H-imidazol-2-yl)-2-phenylpyrimidine], the IC50 on H-PGDS came to 15 µM.

In turn, `Cl.c1ccc(-c2ncc(-c3cc[nH]n3)cn2)cc1` [Example 41, 2-phenyl-5-(1H-pyrazol-3-yl)pyrimidine hydrochloride] yielded a melting point of 264 to 273 °C. On H-PGDS, this molecule showed a concentration for half-maximal inhibition (IC50) of 2.4 µM.

At H-PGDS, `c1ccc(Cn2c(-c3cnc(-c4ccccc4)nc3)cnc2-c2ccccc2)cc1` [Example 1 (Step C), 5-(1-benzyl-2-phenyl-1H-imidazol-5-yl)-2-phenylpyrimidine] registered a concentration for half-maximal inhibition (IC50) of 15 µM.

`c1ccc(Oc2ncc(-c3cnc(-c4ccccc4)[nH]3)cn2)cc1` [Example 38, 2-phenoxy-5-(2-phenyl-1H-imidazol-5-yl)pyrimidine] yielded a melting point of 254 °C. At H-PGDS, the IC50 amounted to 4 µM.

As for `Fc1cccc(-c2nc(-c3cnc(-c4ccccc4)nc3)cs2)c1` [Example 58, 2-(3-fluorophenyl)-4-(2-phenylpyrimidin-5-yl)thiazole], the melting point amounted to 228 °C. On H-PGDS, the IC50 was > 20 µM.

As to `c1ccc(-c2ncc(-c3cnc[nH]3)cn2)cc1` [Example 5, 5-(1H-imidazol-5-yl)-2-phenylpyrimidine], the melting point came out at 216 °C. This molecule registered a concentration for half-maximal inhibition (IC50) at H-PGDS of 5 µM.

At H-PGDS, `c1ccc(-c2ncc(-c3cnc(C4CCNCC4)[nH]3)cn2)cc1` [Example 18, 2-phenyl-5-(2-(piperidin-4-yl)-1H-imidazol-5-yl)pyrimidine] yielded a concentration for half-maximal inhibition (IC50) of 1 µM.

Consider `Cc1nc(-c2ccccc2)sc1-c1cnc(-c2cccnc2)n1Cc1ccccc1` [Example 71, 5-(1-benzyl-2-(pyridin-3-yl)-1H-imidazol-5-yl)-4-methyl-2-phenylthiazole], for which the IC50 at H-PGDS is > 20 µM.

Molecule `Cn1nnc(-c2cnc(-c3ccccc3)nc2)n1` [Example 73A, 5-(2-methyl-2H-tetrazol-5-yl)-2-phenylpyrimidine] came in with an IC50 at H-PGDS of 10 µM.

As to `CC(C)(C)OC(=O)N1CCC(n2nnc(-c3cnc(-c4ccccc4)nc3)n2)CC1` [Example 52, tert-butyl 4-(5-(2-phenylpyrimidin-5-yl)-2H-tetrazol-2-yl)piperidine-1-carboxylate], the melting point was in the range of 178 to 180 °C.

Regarding `CC(=O)N1CCCC(c2nc(-c3cnc(-c4ccccc4)nc3)c[nH]2)C1` (stereo not shown) [1-(3-(4-(2-phenylpyrimidin-5-yl)-1H-imidazol-2-yl)piperidin-1-yl)ethanone], the 50% inhibitory concentration (IC50) at H-PGDS was 0.09 µM.

For the molecule `Cc1ccc(-c2cnc(-c3cccnc3)[nH]2)cn1` [Example 66, 2-methyl-5-(2-(pyridin-3-yl)-1H-imidazol-5-yl)pyridine], at H-PGDS, the IC50 is > 10 µM.

For the molecule `c1ccc(-c2ncc(-c3cnc(-c4ccccc4)o3)cn2)cc1` [Example 46, 2-phenyl-5-(2-phenylpyrimidin-5-yl)oxazole], the melting point is 228 to 231 °C. On H-PGDS, this molecule gave an IC50 of 125 µM.

`c1ccc(-c2ncc(-c3cn(C(c4ccccc4)(c4ccccc4)c4ccccc4)cn3)cn2)cc1` [Example 34 (Step A), 2-phenyl-5-(1-trityl-1H-imidazol-4-yl)pyrimidine]: the half-maximal inhibitory concentration (IC50) at H-PGDS was > 20 µM.

Take `Cn1nnnc1-c1cnc(-c2ccccc2)nc1` [Example 73B, 5-(1-methyl-1H-tetrazol-5-yl)-2-phenylpyrimidine]: the half-inhibitory concentration (IC50) on H-PGDS amounted to 20 µM.

At H-PGDS, `CC(C)(C)OC(=O)c1csc(-c2cnc(-c3ccccc3)nc2)n1` [Example 62, tert-butyl 2-(2-phenylpyrimidin-5-yl)thiazole-4-carboxylate] gave a 50% inhibitory concentration (IC50) of 5.9 µM.

As to `Cn1cncc1-c1cnc(-c2ccccc2)nc1` [Example 32, 5-(1-methyl-1H-imidazol-5-yl)-2-phenylpyrimidine], the melting point amounted to 144 °C. In addition, the IC50 on H-PGDS was found to be 7.6 µM.

Molecule `c1ccc(-c2ncc(-c3cnc(C4CCCNC4)[nH]3)cn2)cc1` (racemic) [Example 22, (±)-2-phenyl-5-(2-(piperidin-3-yl)-1H-imidazol-5-yl)pyrimidine] registered a melting point of 140 °C. Moreover, at H-PGDS, the half-maximal inhibitory concentration (IC50) was found to be 1.25 µM.

In turn, `CNC(=O)N1CCCC(c2nc(-c3cnc(-c4ccccc4)nc3)cn2C(=O)NC)C1` (racemic) [Example 25A, (±)-N-methyl-3-(1-(methylcarbamoyl)-4-(2-phenylpyrimidin-5-yl)-1H-imidazol-2-yl)piperidine-1-carboxamide] displayed an IC50 on H-PGDS of 0.62 µM.

For the molecule `O=C(N1CCCC(c2nc(-c3cnc(-c4ccccc4)nc3)c[nH]2)C1)C(F)(F)F` (racemic) [Example 27, (±)-2,2,2-trifluoro-1-(3-(4-(2-phenylpyrimidin-5-yl)-1H-imidazol-2-yl)piperidin-1-yl)methanone], at H-PGDS, the IC50 worked out at 0.09 µM.

For the molecule `CC(C)(C)OC(=O)N1CCCC(c2ncc(-c3cnc(-c4ccccc4)nc3)[nH]2)C1` (racemic) [Example 21, (±)-tert-butyl 3-(5-(2-phenylpyrimidin-5-yl)-1H-imidazol-2-yl)piperidine-1-carboxylate], the melting point came to 130 °C. The molecule also registered an IC50 at H-PGDS of 0.2 µM.

For the molecule `O=C(NCCN1CCOCC1)c1csc(-c2cnc(-c3ccccc3)nc2)n1` [Example 65, N-(2-morpholinoethyl)-2-(2-phenylpyrimidin-5-yl)thiazole-4-carboxamide], at H-PGDS, the IC50 amounted to 2.5 µM.

`O=C(O)c1csc(-c2cnc(-c3ccccc3)nc2)n1` [Example 63, 2-(2-Phenylpyrimidin-5-yl)thiazole-4-carboxylic acid] gave a half-inhibitory concentration (IC50) on H-PGDS of 1.1 µM.

As to `Cc1ccc(-c2cnc(-c3cccnc3)n2Cc2ccccc2)cn1` [Example 66 (Step A), 5-(1-benzyl-2-(pyridin-3-yl)-1H-imidazol-5-yl)-2-methylpyridine], the IC50 at H-PGDS was > 10 µM.

`OC(N1CCCC(c2ncc(-c3cnc(-c4ccccc4)nc3)[nH]2)C1)C(F)(F)F` (stereo not shown) [Example 24, 2,2,2-trifluoro-1-(3-(4-(2-phenylpyrimidin-5-yl)-1H-imidazol-2-yl)piperidin-1-yl)ethanol]: at H-PGDS, the IC50 stood at 10 µM.

`CC(C)(C)OC(=O)N1CCC(c2ncc(-c3cnc(-c4ccccc4)nc3)[nH]2)CC1` [Example 17, tert-butyl 4-(5-(2-phenylpyrimidin-5-yl)-1H-imidazol-2-yl)piperidine-1-carboxylate]: the IC50 at H-PGDS worked out at 0.15 µM.

`O=C(O)c1cc(-c2cnc(Oc3ccccc3)nc2)[nH]n1` [Example 56, 5-(2-phenoxypyrimidin-5-yl)-1H-pyrazole-3-carboxylic acid] displayed an IC50 at H-PGDS of 5 µM.

`CNC(=O)N1CCCC(c2ncc(-c3cnc(-c4ccccc4)nc3)[nH]2)C1` (racemic) [Example 25B, (±)-N-methyl-3-(5-(2-phenylpyrimidin-5-yl)-1H-imidazol-2-yl)piperidine-1-carboxamide] registered a concentration for half-maximal inhibition (IC50) on H-PGDS of 0.3 µM.

`c1ccc(-c2ncc(-c3cnc(C4CCNC4)[nH]3)cn2)cc1` (racemic) [Example 30, (±)-2-phenyl-5-(2-(pyrrolidin-3-yl)-1H-imidazol-5-yl)pyrimidine] showed an IC50 at H-PGDS of 2 µM.

Take `c1ccc(-c2ncc(-c3cc(-c4cccnc4)n[nH]3)cn2)cc1` [Example 53, 2-phenyl-5-(3-(pyridin-3-yl)-1H-pyrazol-5-yl)pyrimidine]: the half-inhibitory concentration (IC50) on H-PGDS came to 1.3 µM.

With `c1ccc(-c2ncc(-c3ncc(-c4ccccc4)o3)cn2)cc1` [Example 47, 5-phenyl-2-(2-phenylpyrimidin-5-yl)oxazole], on H-PGDS, the IC50 was > 20 µM.
